Test results: US20250275968A1, “INHIBITORS OF TAU PROTEINS” (DEUTSCHES ZENTRUM FÜR NEURODEGENERATIVE ERKRANKUNGEN E.V., priority 2022, published 2025)
Structures can show the parent of a compound that is named as a salt.

Experiments:
[1] = target: T1, 2N4R tau aggregates (Homo sapiens, UniProt P10636); test: Dissolution of preformed 2N4R tau fibrils (ThT fluorescence, TEM); type: biochemical; conditions: compounds added to tau fibrils after about 40 h; tau monomer:Compound 1:3 and 1:10
T1 construct: Full-length 2N4R tau was incubated with Osimertinib mesylate
Experimental: (A) ThT fluorescence curves monitoring tau aggregation. tau fibrillization reached a saturation point within about 40 h, then compounds or buffer (Reference) were added to tau fibrils (tau monomer:Compound mole ratios 1:3 and 1:10). The experiment was performed in duplicate. […] Statistically significant differences were determined by one-way ANOVA with Dunnett's multiple comparison test. Significant differences corresponding to p≤0.0002(***) and p≤0.0001(****) are indicated. […] Scale bars are 500 nm. […] The dotted line corresponds to one standard deviation above the Reference value.
To prepare the Tau fibril seeds by de novo aggregation, 2N4R Tau at a monomer concentration of 25 μM was diluted in aggregation buffer. The working concentration of TCEP in the aggregation mixture was <25 μM after dilution of the stock. To this mixture, Thioflavin T (ThT) was added to a final concentration of 50 μM. A total volume of 100 μL of the Tau-ThT mixture was incubated in a well of a 96-well microplate (Greiner Bio-one), in the presence of two polytetrafluoroethylene beads. The microplate was subjected to a program implemented in a Tecan Spark plate reader that involved incubating at 37° C., with intervals of double orbital shaking and ThT fluorescence emission measurement. The excitation wavelength for ThT was set as 430 nm and the emission wavelength was 485 nm. Details of this plate reader program were published previously (Reference: Chakraborty, P. et al. Co-factor-free aggregation of tau into seeding-competent RNA-sequestering amyloid fibrils. Nat. Commun. 12, 4231 (2021)). […] The fibril-containing mixture collected from the microplate served as a seeding mixture for the subsequent aggregation assays.
Fibril samples were negative stained using glow discharged 400 mesh carbon-coated copper grids. After staining using a 1% uranyl acetate solution, images were acquired on a Talos L120C transmission electron microscope (Thermo Fisher, Eindhoven, The Netherlands).

[2] = target: T2, tau(244-372, 13818 Da) (Homo sapiens, UniProt P10636); test: ESI-MS covalent modification of tau; type: binding
T2 construct: comprising residues 244-372 of 2N4R Tau
Experimental: This analysis was performed using the 4R Tau construct (K18 construct, 13818 Da) comprising residues 244-372 of 2N4R Tau. Compounds (330 μM) were incubated with 4R Tau (65 μM) for 16 h at 37° C. in 10 mM ammonium bicarbonate at pH 7.0. The compound/4R Tau mixtures were injected into an LC system (ACQUITY) coupled to a single quadrupole mass detection system (SQ Detector 2, Waters) with diode-array detectors (DAD). The DAD spectrum covers wavelengths of 210-400 nm. Components of the compound-4R Tau mixture were separated using a BioResolve RP mAb column (Waters) with a gradient of 5-95% buffer B (buffer A is 0.1% TFA in water and buffer B is 0.1% TFA in acetonitrile). Covalent modification of 4R Tau corresponded to mass additions of 500 Da (Osimertinib) and 486 Da (AZ7550 or AZ5104).

[3] = target: T3, 2N4R Tau fibrils (Homo sapiens, UniProt P10636); test: Saturation transfer difference (STD) NMR with tau fibrils; type: binding; conditions: 48-fold excess of compound, 100 mM NaCl, 2.5% (v/v) DMSO, pH 6.8, 37° C.
T3 construct: Full-length 2N4R tau was incubated with Osimertinib mesylate
Experimental: 2N4R Tau fibrils were prepared using the aggregation procedure described in the section in vitro assay 1 without Thioflavin T. The mole ratio of “free” compound to fibrils was 48:1 (corresponding to a total compound concentration of 250 μM and a total fibril concentration of 5 μM Tau). The NMR samples were prepared in 50 mM sodium phosphate with 100 mM NaCl and 2.5% (v/v) DMSO at pH 6.8. The spectra were recorded at 37° C. using a Bruker 700 MHz spectrometer equipped with a triple resonance cryoprobe. 1D ^1H-NMR STD spectra were acquired in an interleaved manner, alternating between off-resonance irradiation at 60 ppm and on-resonance irradiation at −2 ppm.

[4] = target: T4, Full-length 2N4R tau (Homo sapiens, UniProt P10636); test: MS/MS analysis of compound adduct in tau; type: binding; conditions: 1:5 mole ratio tau:compound, overnight at 37° C.
T4 construct: Full-length 2N4R tau was incubated with Osimertinib mesylate
Experimental: Compounds (330 μM) were incubated with 2N4R Tau (65 μM) in buffer (25 mM HEPES, 10 mM KCl, 5 mM MgCl2, pH 7.2) for 16 h at 37° C. then stored at 4° C. until in-gel digestion.
In-gel digestion using trypsin (Sigma Aldrich) followed by extraction of peptides for mass spectrometry were performed as described previously (Reference: Shevchenko, A., Tomas, H., Havlis, J., Olsen, J. V., and Mann, M. (2006). In-gel digestion for mass spectrometric characterization of proteins and proteomes. Nature protocols 1, 2856-2860). Extracted peptides were resuspended in 2% acetonitrile and 0.05% TFA and analyzed using a Orbitrap Exploris 480 Mass Spectrometer (Thermo Fisher). The mass spectrometer used an emitter voltage at […] and ion transfer tube temperature at 300° C. Full scans were recorded in the range 350 to 1600 m/z with a mass resolution of 15000. Peptides were fragmented in the collision cell with a 28% energy setting. Tandem mass spectra were acquired using Scan Range Mode “Define First Mass” and isolation window of 1.6 m/z with a mass resolution of 15000.

[5] = system: tau-induced degeneration of Drosophila eyes (GMR-Gal4/WT tau); test: Drosophila neurodegeneration model (eye degeneration); type: in vivo
Experimental: Stock solutions of individual compounds were prepared by dissolving 10 mg of the compound in 100 μl of 100% DMSO. Osimertinib, Osimertinib mesylate and AZ7550 mesylate were orally fed to the flies by mixing them with food. The final concentration of each compound, which was used for treating the Drosophila, was derived on the basis of recommended concentrations for human use (reference concentration) based on body weight.
We have used three concentrations for each compound. One was equal to the reference concentration, and two were higher than the reference concentration. Final concentrations of different compounds mixed with fly food are: Osimertinib mesylate, […]; Osimertinib, […]; AZ 7550 mesylate, 10 µM and 20 µM. After hatching, first instar larvae were transferred onto the food containing one of the compounds. Food mixed with drug at required concentration was replaced with fresh food every 48 h.
Light microscopy was performed after mounting the fly heads on the glass slide using a double-sided adhesive tape. Full-eye images were captured with the help of an Infinity Analyze camera attached to an Olympus SZX7 microscope with a halogen light source. Total eye surface area and degenerated eye surface area were marked and calculated with Infinity Analyze software (Lumenera corporation). Percentage of degenerated area was calculated and plotted using GraphPad Prism 8.
After the eclosion, treated and control flies (2-3 days old) were fixed in 1% formaldehyde for two hours, followed by serial dehydration steps of 12 hrs each in 25%, 50%, 75% and 100% ethanol were carried out. Flies were stored in 100% ethanol and dried with CPD before mounting on the stab for imaging. Eye Images were captured at 150× and analyzed using Infinity Analyze software.

T2 sequence (P10636 561-689): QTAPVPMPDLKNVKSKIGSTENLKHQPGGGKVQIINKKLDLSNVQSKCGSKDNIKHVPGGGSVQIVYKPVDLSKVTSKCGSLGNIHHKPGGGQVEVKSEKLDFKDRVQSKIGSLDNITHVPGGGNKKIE
T3 sequence (P10636 1-441 isoform P10636-8): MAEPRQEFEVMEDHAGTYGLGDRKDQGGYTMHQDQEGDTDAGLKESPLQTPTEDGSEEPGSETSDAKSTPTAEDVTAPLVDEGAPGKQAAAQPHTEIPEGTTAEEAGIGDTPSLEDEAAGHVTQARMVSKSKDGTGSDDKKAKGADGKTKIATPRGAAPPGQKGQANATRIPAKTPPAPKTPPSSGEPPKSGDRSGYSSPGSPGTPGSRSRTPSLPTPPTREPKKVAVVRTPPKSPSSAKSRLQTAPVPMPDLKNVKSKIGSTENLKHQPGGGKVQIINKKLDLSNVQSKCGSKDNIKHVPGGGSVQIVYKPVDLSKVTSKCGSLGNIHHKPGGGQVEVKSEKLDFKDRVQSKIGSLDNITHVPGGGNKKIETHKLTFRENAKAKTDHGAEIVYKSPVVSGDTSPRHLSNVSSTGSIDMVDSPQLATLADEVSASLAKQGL
T1 sequence (P10636 1-441 isoform P10636-8): as above
T4 sequence (P10636 1-441 isoform P10636-8): as above

| SMILES | dissolution of 2N4R tau aggregates (reduction of ThT fluorescence intensity) [1] | covalent modification of cysteines in tau (ESI-MS) [2] | STD effect with tau fibrils (fibril binding epitopes) [3] | tau peptide spectrum matches showing compound-modified cysteine sites [4] | covalent modification of C291 and C322 (peptide mass spectra, LC-MS/MS) ([4]; tryptic digestion) | tau-induced degeneration of Drosophila eyes (percent degeneration, light microscopy) ([5]; GMR-Gal4/WT tau flies treated in food from larvae stage to adult stage) | signs of eye degeneration in SEM micrographs ([5]; compared to control with GMR-Gal4/WT tau) |
| --- | --- | --- | --- | --- | --- | --- | --- |
| C=CC(=O)Nc1cc(Nc2nccc(-c3c[nH]c4ccccc34)n2)c(OC)cc1N(C)CCN(C)C [Compound 3, N-[2-[[2-(dimethylamino)ethyl]methylamino]-5-[[4-(1H-indol-3-yl)-2-pyrimidinyl]amino]-4-methoxyphenyl]-2-Propenamide] | partially dissolve | confirms covalent modification of cysteines | Protons showing STD effects | – | – | – | – |
| C=CC(=O)Nc1cc(Nc2nccc(-c3cn(C)c4ccccc34)n2)c(OC)cc1N(C)CCN(C)C [Osimertinib mesylate, N-[2-(2-Dimethylaminoethylmethylamino)-4-methoxy-5-[[4-(1-methylindol-3-yl)pyrimidin-2-yl]amino]phenyl]prop-2-enamide Mesylate Salt] | – | – | – | about 350 | confirm covalent modification of cysteines in tau | rescue tau-induced degeneration of Drosophila eyes | – |
| C=CC(=O)Nc1cc(Nc2nccc(-c3cn(C)c4ccccc34)n2)c(OC)cc1N(C)CCN(C)C [Osimertinib, N-[2-(2-Dimethylaminoethylmethylamino)-4-methoxy-5-[[4-(1-methylindol-3-yl)pyrimidin-2-yl]amino]phenyl]prop-2-enamide] | partially dissolve | confirms covalent modification of cysteines | Protons showing STD effects | – | – | – | visibly reduced signs of degeneration |
